# Measured values reported in US12350273B2, “Treatment of SMA” (Hoffmann-La Roche Inc., priority 2017, dated 2025).
# Test system: FOXM1B/C transcript variants
# Assay: FOXM1B/C mRNA expression in Cynomolgus monkey iPSCs (RT-qPCR)
# Type: cell-based
# Settings: 24 h; for Mean FOXM1B/C relative mRNA expression (2-ΔΔCt vs control): Cynomolgus monkey iPSCs
# Description: FIG. 5A-FIG. 5B: Effect of RO7034067 on FOXM1 mRNA expression levels in human and Cynomolgus monkey iPSCs • Cells were treated with RO7034067 for 24 hours, and FOXM1 B/C transcript variants were analyzed by RT-PCR. Data represent means±SEM of 3 repetitions and are expressed as fold change vs. controls. IC50 values are indicated. FIG. 5A. human iPSCs. FIG. 5B. Cynomolgus monkey iPSCs
# Human iPSCs (hIPS_Neo_Clone_1) were cultivated in mTeSR1 (Stem Cell Technologies) as standard medium and Cynomolgus monkey iPSCs (cips_54-1285_cFIB_Clone_8) in MT medium supplemented with 10 ng/ml ActivinA and 15 ng/ml FGF2.
# For gene expression profiling, stem cells were detached with Accutase (Stem Cell Technologies) and plated in 12 well plates coated with Matrigel (BD Biosciences) in the respective standard medium supplemented with 10 μM Rock inhibitor Y-27632 (Sigma-Aldrich). In order to obtain enough RNA, monkey stem cells were seeded at 15000 cells/cm2 and human stem cells were seeded at 40000 cells/cm2 24 h prior to treatment. Thereafter stem cells were treated for 24 h with serial dilutions (1:5) of test items in fresh, pre-warmed medium in a concentration range from 0.64 nM till ˜10 μM. To stop the experiment, cells were lysed in QiaGen's lysis buffer RLT with beta-mercaptoethanol.
# Human and Cynomolgus monkey mRNA expression was measured with customized primer and FAM fluorescently-labeled Universal Probe Library (UPL) probes from Roche or probes from Microsynth containing a 5′ FAM label and a 3′ terminal BlackHole Dark Quencher 1 (BHQ1). The sequences of the primer and FAM labeled probes are listed as follows:
# For quantitative Real-Time-PCR, cells cultivated in a 12 well plate and treated with Roche-compounds for 24 h were lysed in 500 ul/well of QiaGen's lysis buffer RLT with beta-mercaptoethanol. Total RNA was extracted with the RNeasy Mini kit combined with DNase treatment on a solid support. RNA integrity was controlled by using Nanodrop absorption spectroscopy and microfluidic capillary array electrophoresis profiles from an Agilent Bioanalyzer
# 2100. Between 300 ng to 800 ng of total RNA were reverse transcribed with oligo-dT primer and spiked MS2 RNA at 10 ng/uL final concentration using the Transcriptor First Strand cDNA Synthesis Kit (Roche Applied Science #04379012001) following the manufacturer's recommended protocol. The quantitative PCR was performed on a LightCycler 480 qPCR machine using 67.5 ng total RNA derived cDNA as input in a 20 μl mixture containing 1× LightCycler 480 Probes Master, 0.4 μM forward and reverse primers, and 0.2 μM FAM labeled hydrolysis probe. The temperature program consisted of pre-incubation at 95° C. for 10 min, followed by 50 cycles of amplification (95° C. for 10 s, 60° C. for 30 s, 72° C. for 5 s). Negative control reactions were conducted in the absence of cDNA template to confirm absence of cDNA contamination in the master mix. Measurements of Ct (cycle threshold)-values were performed for each sample-mRNA combination. Using the 2-ΔΔCt method (Livak K J et al. Method. Methods. 2001; 25(4):402-8), the data are presented as the fold change in gene expression normalized to an endogenous reference gene and relative to the untreated control. To derive individual ΔCt values, the Ct value for each target mRNA of each sample was normalized to the Ct value of the endogenous reference mRNA of GAPDH (glyceraldehyde-3-phosphate dehydrogenase). The […] was calculated by subtracting the ΔCt value of the vehicle-control group from the respective ΔCt value of each treatment group. Resultant expression ratios (2-ΔΔCt) mirrored treatment-related mRNA expression changes versus vehicle-controls. […] The model to derive the IC50 assumes that the dose response curves has a standard slope, equal to a Hill slope (or slope factor) of −1.0. Model equation: Y=Bottom+(Top-Bottom)/(1+10^((X-Log IC50))); with Y being the response data and X being log 10 concentrations in μM.
compound,measurement,setting,value
"Cc1cn2nc(-c3cc(=O)n4cc(N5CCNC6(CC6)C5)ccc4n3)cc(C)c2n1 [RO7034067, 7-(4,7-diazaspiro[2.5]octan-7-yl)-2-(2,8-dimethylimidazo[1,2-b]pyridazin-6-yl)pyrido[1,2-a]pyrimidin-4-one]",Mean FOXM1B/C relative mRNA expression (2-ΔΔCt vs control),0.64 nM,0.967
same,Mean FOXM1B/C relative mRNA expression (2-ΔΔCt vs control),3.2 nM,0.990
same,Mean FOXM1B/C relative mRNA expression (2-ΔΔCt vs control),16 nM,0.963
same,Mean FOXM1B/C relative mRNA expression (2-ΔΔCt vs control),80 nM,0.704
same,Mean FOXM1B/C relative mRNA expression (2-ΔΔCt vs control),400 nM,0.176
same,Mean FOXM1B/C relative mRNA expression (2-ΔΔCt vs control),2000 nM,0.023
same,Mean FOXM1B/C relative mRNA expression (2-ΔΔCt vs control),10000 nM,0.037
same,IC50,"Macaca fascicularis, iPSC, monkey iPSCs, read-out: IC50 on expression levels of FOXM1B/C",155 nM
